Test [1] deals with PZ-HPV-7 human prostatic epithelial cells. Description: Cell proliferation, MTT assay. The class given is cell-based. As to the method:
PZ-HPV-7, a human prostate epithelial cell line derived from normal peripheral zone tissue and transfected with human papillomavirus type 18, was obtained from the American Type Culture Collection (ATCC). Cells were grown in K-SFM medium supplemented with 100 U/mL penicillin, […], streptomycin 5 ng/ml, EGF human recombinant and 50 µg/mL BPE in 75-cm^2 flasks at 37° C. in a humidified atmosphere of […]. The culture medium was renewed every 2 days and cells were sub-cultured every 6 days. For the experiments, cells were seeded in 24-well plates at a density of 1×10^4 cells/well. After 24 hours and 48 hours, when cells were 80% confluent, KMUP-1 (1-100 μM) was added to the 24-well plates. Cell proliferation was measured using MTT assay (3-[4,5-dimethylthiazol-2-yl]-2,5-diphenyl-tetrazolium bromide, Sigma). The trypan blue […] exclusion assay was performed to determine the proportion of living and dead cells in 24 hours and 48 hours after treatment. After 24 hours and 48 hours of treatment with KMUP-1 (1-100 μM), attached cells were collected by trypsinization. Cells were counted in a hemocytometer using equal volume of cell suspension and trypan blue solution (0.2% in PBS).
For orientation: Formazan colour is commonly taken as a measure of viable cells.

Test [2] concerns phenylephrine (10 μM) pre-contracted rat isolated prostate. The test can be described thus: Relaxation of phenylephrine pre-contracted rat isolated prostate strips (isometric tension). As to the method:
The rat isolated prostate tissue was prepared as previously described with modifications^[10]. Briefly, Wistar rats (300-400 g) were killed with pentobarbital sodium (30 mg/kg) and the ventral part of their prostates were quickly excised. […] O2 and 5% CO2.
Isometric tension was recorded with a force displacement transducer (UGO BASILE, Model 7004, Italy). After the equilibration period, the strips were primed twice by adding 10 μM of the agonist, phenylephrine, to reach 80-100% of maximum contraction. […] The relaxation on rat prostate by KMUP-1 (0.01-100 μM) and tamsulosin (0.001 nM-100 μM) were also tested by their combination with sildenafil (0.1 μM), respectively. In isolated prostate strips, while stable constriction to phenylephrine was reached, sildenafil (0.1 μM) was pre-incubation for 30 minutes, before the cumulative addition of KMUP-1 (0.01-100 μM) or tamsulosin (0.001 nM-100 μM) to isolated prostate strips. In another experiment, to examine the possible mechanism of action of KMUP-1, rat prostates were pretreated with ODQ (1H-[1,2,4]oxadiazolo[4,3-a]quinoxalin-1-one, 10 μM, sGC inhibitor), RP-8pCPT-cGMPs (10 μM, PKG inhibitor), glibenclamide (10 μM, KATP channel blocker), 4-AP (4-aminopyridine, 100 μM, voltage-dependent K^+ channel blocker), apamin (1 μM, Ca^2+-dependent K^+ channel blocker) and charybdotoxin (ChTX) (0.1 μM, Ca^2+-dependent K^+ channel blocker) for 30 minutes before addition of KMUP-1 (100 μM).

The next test has as its system sGCa1. The test can be described thus: Western blot of sGCa1 expression in rat prostate. As to the method: (§1) Prostate strips were incubated with KMUP-1 (10-100 μM), sildenafil (100 μM) and zaprinast (100 μM) in 10 mL Tyrode solution aerated with 95% O2 and 5% CO2 for 1 hour. To examine the possible mechanisms of KMUP-1 action, the rat prostate were pretreated with ODQ (10 μM), SQ22536 (10 μM) and RP-8pCPT-cGMPs (10 μM) for 30 minutes prior to the addition of KMUP-1 (100 μM).
In order to examine the expression of Rho kinase in prostate, the prostate strips were pre-incubated with phenylephrine (10 μM) for 30 minutes. After a pre-treatment of phenylephrine, KMUP-1 (10-100 μM) and Y-27632 (10 μM) were further incubated for 30 minutes. After the incubation time, the prostate were extracted with protein extraction reagent (Pierce Biotechnology, Inc., Rockford, Ill., USA.). The PZ-HPV-7 cells were incubated with and without KMUP-1 (0.1-10 μM) at 30 minutes, 8 and 24 hours. They were then washed rapidly with ice-cold PBS, incubated with protein extraction reagent, and scraped from the plates. The prostate tissues and cells were sonicated three times for 10 second each time and centrifuged at 13,000 rpm at 4° C. for 30 minutes. The protein concentrations of supernatants were determined, using bovine serum albumin as the standard. Tissue and cell extract protein were then boiled at a ratio of 4:1 with sample buffer (100 mM Tris, pH 6.8, 20% glycerol, 4% SDS, and 0.2% bromphenol blue). 40-60 μg protein was used in this experiment. Electrophoresis was performed using 10 or 12% SDS-polyacrylamide gel electrophoresis and then transferred to nitrocellulose membranes (Millipore Corporation, Billerica, Mass.). The membrane was blocked with Tris-buffered saline (20 mM Tris and 137 mM NaCl, pH 7.6) containing 0.1% Tween 20 (TTBS) and 5% non-fat milk at room temperature for 1 hour, washed with TTBS, and then incubated overnight at 4° C. in the appropriate primary antibody of PKG (Santa Cruz, 1:200), sGCa1 (Santa Cruz, 1:200), PKA (Abcam, 1:1000), ROCK2 (Upstate, 1:1000), and PDE5A (BD Biosciences, 1:1000), p21 (Upstate, 1:1000). The membranes were washed in TTBS before being incubated with horseradish peroxidase-conjugated antibody against mouse, goat, or rabbit IgG (Santa Cruz, 1:1000) for 1 hour. The membrane was then washed in TTBS and developed with the enhanced chemiluminescence (ECL) for the detection of the specific antigen. The intensity of the bands was measured by densitometry.
Background: Immunoblotting shows a protein as a band on a membrane.

In a further test the test system is PDE5A. The test can be described thus: Western blot of PDE5A expression in rat prostate. The conditions noted are these: KMUP-1 10-100 μM. As to the method:
as §1
In order to examine the expression of Rho kinase in prostate, the prostate strips were pre-incubated with phenylephrine (10 μM) for 30 minutes. After a pre-treatment of phenylephrine, KMUP-1 (10-100 μM) and Y-27632 (10 μM) were further incubated for 30 minutes. After the incubation time, the prostate were extracted with protein extraction reagent (Pierce Biotechnology, Inc., Rockford, Ill., USA.). The PZ-HPV-7 cells were incubated with and without KMUP-1 (0.1-10 μM) at 30 minutes, 8 and 24 hours. They were then washed rapidly with ice-cold PBS, incubated with protein extraction reagent, and scraped from the plates. The prostate tissues and cells were sonicated three times for 10 second each time and centrifuged at 13,000 rpm at 4° C. for 30 minutes. The protein concentrations of supernatants were determined, using bovine serum albumin as the standard. […] The intensity of the bands was measured by densitometry.

Where “and” joins values, the source holds several entries; their conditions need not be identical. Equal entries are not always repeated.

Turning to `Cn1c(=O)c2c(ncn2CCN2CCN(c3ccccc3Cl)CC2)n(C)c1=O` [KMUP-1, 7-[2-[4-(2-Chlorobenzene)piperazinyl]ethyl]-1,3-dimethyl xanthine], the cell growth in test [1] (1 μM, 24 hours) is recorded as 82.00±3.03 % of control; in test [1] (1 μM, 48 hours) it was 70.00±2.23 % of control; in test [1] (10 μM, 24 hours) it was 80.03±1.52 % of control; in test [1] (10 μM, 48 hours), 56.00±2.72 % of control; in test [1] (100 μM, 24 hours) it was 79.00±1.35 % of control; in test [1] (100 μM, 48 hours), 47.00±1.8 % of control. Moreover, the relaxation is on record as 110.00±5.09% in test [2] (10 μM, 1 hour, phenylephrine 10 μM pre-contracted); 112.50±7.84% in test [2] (KMUP-1 100 μM, pre-incubation with ODQ 10 μM); 128.00±4.41% in test [2] (KMUP-1 100 μM, pre-incubation with RP-8pCPT-cGMPs 10 μM); 122.00±3.74% in test [2] (KMUP-1 100 μM, with 4-AP 100 μM); 126.00±9.09% in test [2] (KMUP-1 100 μM, with apamin 1 μM); 138.00±7.01% in test [2] (KMUP-1 100 μM, with charybdotoxin 0.1 μM). Besides, the relaxation in test [2] (KMUP-1 100 μM, with glibenclamide 10 μM) is reported as 115.00±7.07%. Besides, the relaxation activity in test [2] (100 μM combined with sildenafil 0.1 μM) is 190.00±10.14%. Further, the relaxation ability in test [2] (100 μM, phenylephrine 10 μM pre-contracted) is 179.00±5.35% and 179.00±5.3%. Further, the “expression of sGCa1” value in the test with sGCa1 (KMUP-1 100 μM after pretreatment of ODQ 10 μM for 30 minutes) is “significantly reduce”; with sGCa1 (KMUP-1 10-100 μM, sildenafil, zaprinast 100 μM, 1 hour) it was “most potently induces”. Also, in the test with PDE5A, the “expression of PDE5A” value is “mildly inhibits”.

For the origin of these results see patent US20090306093A1, “METHOD FOR TREATING PATIENT HAVING BENIGN PROSTATE HYPERPLASIA” (KAOHSIUNG MEDICAL UNIVERSITY, priority 2008, published 2009).
